Measurements taken from article PMC8954547, “Nonpeptidic Z360-Analogs Tagged with Trivalent Radiometals as Anti-CCK2R Cancer Theranostic Agents: A Preclinical Study” (Pharmaceutics, 2022).

Columns and labels:
[1] = test system: HEK293-CCK2i4svR cells; assay: Radioligand uptake and internalization in HEK293-CCK2i4svR cells; assay type: cell-based, human; settings: for Internalized fraction / Cell uptake (internalized + membrane-bound): 1 h 37 °C, specific; for Cell uptake (internalized + membrane-bound): of total added activity
Experimental: A day before the experiment, HEK293-CCK2i4svR cells were seeded in six-well plates. The next day, cells were rinsed with ice-cold internalization medium (IM: DMEM Glutamax-I, supplemented by 1% (v/v) FBS) and then the fresh medium was added (1.2 mL) at 37 °C. A further portion of IM (150 µL) was added in the upper well-row, and DG2 solution in IM (150 µL) was added in the lower row (to a final concentration of 1 μM; non-specific series). Each of the test radioligands, [^67Ga]Ga/[^111In]In/[^177Lu]Lu-GAS1/3 and [^67Ga]Ga/[^111In]In-GAS2, was finally added (250 fmol total conjugates in 150 μL 0.5% BSA-PBS) in all the wells and the plates were incubated at for 1 h at 37 °C in an Incubator-Orbital Shaker unit (MPM Instr. SrI, Bernareggio, MI, Italy); [^111In]In-GAS1/2/3 were incubated for 15 min, 30 min, 1 h and 2 h. At the predetermined time points, the plates were placed on ice, the medium was collected, and the plates were rinsed with 0.5% BSA-PBS (1 mL). Cells were subsequently treated with an acid-wash solution (2 × 600 µL; 50 mM glycine buffer pH 2.8, 0.1 M NaCl) and the fractions collected (membrane-bound). After briefly washing with 0.5% BSA-PBS (1 mL), the cells were lysed with 1 N NaOH (2 × 600 µL), and the fractions were collected (internalized). The radioactivity content of collected fractions was counted in the gamma counter, and the percentage of internalized and membrane-bound fractions per time point were calculated with Microsoft Excel. Specific internalized and membrane-bound counts were determined by subtracting the respective non-specific (in the presence of 1 μM DG2) from the respective total counts. Results represent specific internalized/membrane bound ± SD of total added radioactivity per well from three experiments performed in triplicate.

[2] = Radioligand stability in mice (radio-HPLC of blood and urine); assay type: in vivo; settings: mean ± SD
Experimental: The formation of radiometabolites which can be detected in the blood was tested in blood samples collected 5 min post-injection (pi) of each of the radioligands [^67Ga]Ga/[^111In]In/[^177Lu]Lu-GAS1/3 and [^67Ga]Ga/[^111In]In-GAS2. For this study, in-house male Swiss albino mice (body weight: 30 ± 5 g, provided by the NCSR “Demokritos” Animal House) were used in groups of three. The animals received, through the tail vein, a 100-μL bolus containing each radioligand tested (2.5–3 nmol of the total conjugate in vehicle: saline/EtOH 9/1 v/v, corresponding to: up to 11 MBq for In-111, up to 13 MBq for Ga-67 and up to 74 MBq for Lu-177). Mice were euthanized, and blood was collected directly from the heart using a prechilled penicillin syringe and transferred in a prechilled EDTA-containing Eppendorf Protein LoBind® tube on ice (40 µL, 50 mM Na2EDTA solution). After centrifugation (10 min, 2000× g/4 °C, in a Hettich, Universal 320R, centrifuge), the blood plasma was collected, mixed with chilled MeCN in a 1/1 v/v ratio and centrifuged again (10 min, 15,000× g/4 °C). Supernatants were collected and concentrated to a small volume (≈50–100 μL) under a gentle N2-flux at 40 °C. They were then diluted with physiological saline (≈400 μL) and filtered through a Millex GV filter (0.22 μm, 13 mm Ø, Millipore, Milford, CT, USA). Aliquots of the filtrate were analyzed by radio-RP-HPLC using a Waters Symmetry Shield RP18 cartridge column (5 μm, 3.9 mm × 20 mm) eluted at a flow rate of 1.0 mL/min with the following gradient: 100% A/0% B to 55% A/45% B in 45 min; A = 0.1% aqueous TFA (v/v) and B = MeCN (system 2). The elution time (tR) of each parent radioligand was determined by coinjection of blood samples with an aliquot of the labeling solution on the HPLC column. Results were calculated as the average percentage of intact radioligand ± SD derived from three independent experiments.
Following the same injection protocol, radioligands were administered in additional groups of mice, but this time animals were euthanized 30 min pi. The urine was immediately collected from the bladder using a prechilled syringe and transferred as before in a prechilled EDTA-containing Eppendorf Protein LoBind® centrifuge tube on ice (40 µL, 50 mM Na2EDTA solution) and 0.1 mL of physiological saline. Urine proteins were precipitated by adding chilled MeCN in a 1/1 v/v ratio followed by a 10 min centrifugation step (15,000× g/4 °C). The supernatant was then collected and treated following the blood sample workup procedure. Aliquots of the Millex-GV filtrate (containing >90% of total urine activity) were analyzed by radio-HPLC, adopting the aforementioned conditions. Results were calculated as the average percentage of intact radioligand ± SD derived from three independent experiments.

[3] = test system: SCID mice bearing twin HEK293-CCK2i4svR and wtHEK293 tumors; assay: Biodistribution in SCID mice bearing twin HEK293-CCK2i4svR and wtHEK293 xenografts; assay type: in vivo
In short: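 Uptake is expressed as %IA/g (mean ± SD, n = 4) from gamma counting of blood, organs and tumours collected at set times: 1, 4 and 24 h pi for ^67Ga, 4 and 24 h for ^111In (±gelofusine), 4–96 h for ^177Lu. Radioligands were given iv at 7–40 pmol to SCID mice bearing twin CCK2i4svR-transfected and wild-type HEK293 xenografts.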

[4] = test system: HEK293-CCK2i4svR and wtHEK293 xenografts; assay: SPECT/CT of HEK293-CCK2i4svR and wtHEK293 xenografts; assay type: in vivo, mice; settings: 4 h and 24 h pi
Experimental: For SPECT/CT imaging, six mice bearing twin HEK293-CCK2i4svR and wtHEK293 tumors were injected in the tail vein with a bolus containing [^111In]In-GAS1/2/3 (100 μL, 9–12 MBq associated with 3 nmol total injected analog in-vehicle: saline/EtOH 9/1 v/v). Mice were euthanized at 4 h and 24 h pi. Tomographic SPECT/CT imaging was performed with the y-CUBE/x-CUBE systems (Molecubes, Belgium). The SPECT system is based on monolithic NaI detectors attached to SiPMs, with a 0.6 mm intrinsic resolution. The CT system is based on a structured CMOS detector of CsI with pixels of 75 µm and operates between 35–80 kVp, 10–500 µA tube current, with a 33 µm fixed focal spot size. SPECT scans were acquired 4 h pi and 24 h pi, with a 40–50 min duration protocol based on the injected activity, and each SPECT scan was succeeded by a CT scan, following General-Purpose protocol under 50 kVp, for co-registration purposes. SPECT images were reconstructed using the MLEM reconstruction method with a 250 µm voxel size and 500 iterations. CT images were reconstructed using the ISRA reconstruction method with a 100 µm voxel size.
Images were exported and post-processed on VivoQuant software, version 4.0 (Invicro, Boston). A smoothing median filter (0.6 mm, spherical window) was applied to the images, and the bladder was removed for consistency purposes. Normalization of images was performed (i.e., all images having the same color scale range values) to achieve a direct visual comparison between the different groups.

SMILES: CC(C)(C)C(=O)CN1C(=O)[C@H](NC(=O)Nc2cccc(C(=O)NCCOCCOCCOCCNC(=O)[C@H](CCC(=O)O)NC(=O)CN3CCN(CC(=O)[O-])CCN(CC(=O)[O-])CCN(CC(=O)[O-])CC3)c2)CN(C2CCCCC2)c2ccccc21.[67Ga+3] (stereo in doubt) [[^67Ga]Ga-GAS1]
- Internalized to membrane-bound ratio [1]: 0.7
- Internalized fraction [1]: 1.79 ± 0.45 % of total added activity
- Cell uptake (internalized + membrane-bound) [1]: 4.26 ± 0.99%
- Intact radioligand in blood ([2]; mice blood collected 5 min pi): 93.9 ± 0.6 (3) %
- Intact radioligand in urine ([2]; mice urine collected 30 min pi): 80.2 ± 1.0 (3) %
- Biodistribution, Blood ([3]; 1 h pi): 6.53 ± 1.33 %IA/g
- Biodistribution, CCK2i4svR(+) Tumor ([3]; 1 h pi): 12.62 ± 1.76 %IA/g
- Biodistribution, CCK2i4svR(-) Tumor ([3]; 1 h pi): 1.62 ± 0.12 %IA/g
- Biodistribution, Femur ([3]; 1 h pi): 0.97 ± 0.12 %IA/g
- Biodistribution, Heart ([3]; 1 h pi): 2.11 ± 0.86 %IA/g
- Biodistribution, Intestines ([3]; 1 h pi): 2.33 ± 0.44 %IA/g
- Biodistribution, Kidneys ([3]; 1 h pi): 5.78 ± 0.48 %IA/g
- Biodistribution, Liver ([3]; 1 h pi): 3.39 ± 0.35 %IA/g
- Biodistribution, Lungs ([3]; 1 h pi): 3.63 ± 0.69 %IA/g
- Biodistribution, Muscle ([3]; 1 h pi): 0.61 ± 0.07 %IA/g
- Biodistribution, Pancreas ([3]; 1 h pi): 2.26 ± 0.18 %IA/g
- Biodistribution, Spleen ([3]; 1 h pi): 1.63 ± 0.16 %IA/g
- Biodistribution, Stomach ([3]; 1 h pi): 1.09 ± 0.22 %IA/g
- Biodistribution, Blood ([3]; 4 h pi): 1.25 ± 0.27 %IA/g
- Biodistribution, CCK2i4svR(-) Tumor ([3]; 4 h pi): 0.75 ± 0.19 %IA/g
- Biodistribution, Femur ([3]; 4 h pi): 0.29 ± 0.16 %IA/g
- Biodistribution, Heart ([3]; 4 h pi): 0.47 ± 0.09 %IA/g
- Biodistribution, Intestines ([3]; 4 h pi): 2.84 ± 0.38 %IA/g
- Biodistribution, Kidneys ([3]; 4 h pi): 3.59 ± 0.60 %IA/g
- Biodistribution, Liver ([3]; 4 h pi): 2.49 ± 0.31 %IA/g
- Biodistribution, Lungs ([3]; 4 h pi): 1.19±0.21 %IA/g
- Biodistribution, Muscle ([3]; 4 h pi): 0.19±0.07 %IA/g
- Biodistribution, Pancreas ([3]; 4 h pi): 0.51 ± 0.09 %IA/g
- Biodistribution, Spleen ([3]; 4 h pi): 0.78±0.02 %IA/g
- Biodistribution, Stomach ([3]; 4 h pi): 0.37 ± 0.08 %IA/g
- Biodistribution, Blood ([3]; 24 h pi): 0.08 ± 0.01 %IA/g
- Biodistribution, CCK2i4svR(+) Tumor ([3]; 24 h pi): 2.47 ± 0.41 %IA/g
- Biodistribution, CCK2i4svR(-) Tumor ([3]; 24 h pi): 0.00 ± 0.00 %IA/g
- Biodistribution, Femur ([3]; 24 h pi): 0.18 ± 0.04 %IA/g
- Biodistribution, Heart ([3]; 24 h pi): 0.13 ± 0.01 %IA/g
- Biodistribution, Intestines ([3]; 24 h pi): 0.32 ± 0.13 %IA/g
- Biodistribution, Kidneys ([3]; 24 h pi): 0.88 ± 0.17 %IA/g
- Biodistribution, Liver ([3]; 24 h pi): 0.75 ± 0.08 %IA/g
- Biodistribution, Lungs ([3]; 24 h pi): 0.31 ± 0.16 %IA/g
- Biodistribution, Muscle ([3]; 24 h pi): 0.05 ± 0.02 %IA/g
- Biodistribution, Pancreas ([3]; 24 h pi): 0.22 ± 0.01 %IA/g
- Biodistribution, Spleen ([3]; 24 h pi): 0.51 ± 0.12 %IA/g
- Biodistribution, Stomach ([3]; 24 h pi): 0.18 ± 0.02 %IA/g

SMILES: CC(C)(C)C(=O)CN1C(=O)[C@H](NC(=O)Nc2cccc(C(=O)NCCOCCOCCOCCNC(=O)[C@@H](CCC(=O)O)NC(=O)CCC(C(=O)O)N3CCN(CC(=O)[O-])CCN(CC(=O)[O-])CCN(CC(=O)[O-])CC3)c2)CN(C2CCCCC2)c2ccccc21.[111In+3] (some centres unmarked) [[^111In]In-GAS3]
- Internalized to membrane-bound ratio [1]: 4.1
- Internalized fraction [1]: 11.12 ± 0.79 % of total added activity
- Cell uptake (internalized + membrane-bound) [1]: 13.81 ± 0.89%
- Biodistribution, Blood ([3]; 4 h pi): 2.42 ± 0.94 %IA/g
- Biodistribution, CCK2i4svR(+) Tumor ([3]; 4 h pi): 19.83 ± 1.35 %IA/g
- Biodistribution, CCK2i4svR(-) Tumor ([3]; 4 h pi): 0.85 ± 0.37 %IA/g
- Biodistribution, Femur ([3]; 4 h pi): 0.60 ± 0.14 %IA/g
- Biodistribution, Heart ([3]; 4 h pi): 0.81 ± 0.28 %IA/g
- Biodistribution, Intestines ([3]; 4 h pi): 1.66 ± 0.33 %IA/g
- Biodistribution, Kidneys ([3]; 4 h pi): 9.32 ± 0.68 %IA/g
- Biodistribution, Liver ([3]; 4 h pi): 2.78 ± 0.27 %IA/g
- Biodistribution, Lungs ([3]; 4 h pi): 1.36 ± 0.37 %IA/g
- Biodistribution, Muscle ([3]; 4 h pi): 0.31 ± 0.13 %IA/g
- Biodistribution, Pancreas ([3]; 4 h pi): 0.86 ± 0.23 %IA/g
- Biodistribution, Spleen ([3]; 4 h pi): 0.69 ± 0.12 %IA/g
- Biodistribution, Stomach ([3]; 4 h pi): 0.91 ± 0.39 %IA/g
- Biodistribution, Blood ([3]; 24 h pi): 0.08 ± 0.01 %IA/g
- Biodistribution, CCK2i4svR(+) Tumor ([3]; 24 h pi): 11.53 ± 1.93 %IA/g
- Biodistribution, CCK2i4svR(-) Tumor ([3]; 24 h pi): 0.40 ± 0.21 %IA/g
- Biodistribution, Femur ([3]; 24 h pi): 0.27 ± 0.09 %IA/g
- Biodistribution, Heart ([3]; 24 h pi): 0.16 ± 0.02 %IA/g
- Biodistribution, Intestines ([3]; 24 h pi): 0.48 ± 0.14 %IA/g
- Biodistribution, Kidneys ([3]; 24 h pi): 4.15 ± 1.06 %IA/g
- Biodistribution, Liver ([3]; 24 h pi): 1.07 ± 0.26 %IA/g
- Biodistribution, Muscle ([3]; 24 h pi): 0.08 ± 0.01 %IA/g
- Biodistribution, Pancreas ([3]; 24 h pi): 0.17 ± 0.04 %IA/g
- Biodistribution, Spleen ([3]; 24 h pi): 0.43 ± 0.09 %IA/g
- Biodistribution, Stomach ([3]; 24 h pi): 0.35 ± 0.21 %IA/g
- Background clearance / excretion route ([3]; mouse, in vivo): predominantly cleared via the kidneys
- SPECT/CT uptake in CCK2i4svR expressing tumors [4]: Intense uptake
- SPECT/CT uptake in wtHEK293 tumors devoid of CCK2i4svR expression [4]: no uptake is evident
